Laboratory results taken from ChEMBL document CHEMBL3045426, “Synthesis, Antiviral and Antibacterial Activities of Isatin Mannich Bases” (Med Chem Res, 2005).
Converted amounts (≈) assume the structure as drawn.

Legend:
Klebsiella pneumoniae [1] = assay: Antimicrobial activity against Klebsiella pneumoniae after 18 to 20 hr by agar dilution method; assay type: functional
[2] = test system: Human immunodeficiency virus 1; assay: Antiviral activity against Human immunodeficiency virus 1 IIIB infected MT4 cells assessed as protection against viral infection after 5 days by MTT assay; assay type: functional; parameters: concentration or dose not given beside the values
Escherichia coli [3] = assay: Antibacterial activity against Escherichia coli NCTC 10418 infected in po dosed CF mouse compound administered 1 hr prior and 4 hr post infection; assay type: functional; details: NCTC 10418, po
[4] = Cytotoxicity against Homo sapiens (human) CEM cells after 5 days by MTT assay; assay type: cell-based; details: CEM cells (CCRF-CEM)
[5] = test system: Human immunodeficiency virus 1; assay: Antiviral activity against Human immunodeficiency virus 1 IIIB infected CEM cells assessed as protection against viral infection after 6 days by XTT assay; assay type: functional, CCRF-CEM; parameters: concentration or dose not given beside the values
Vero = assay: Cytotoxicity against Chlorocebus aethiops (African green monkey) Vero cells up to 62.5 ug/ml; assay type: cell-based; details: chlorocebus sabaeus
Shigella sonnei = assay: Antimicrobial activity against Shigella sonnei after 18 to 20 hr by agar dilution method; assay type: functional
Morganella morganii = assay: Antimicrobial activity against Morganella morganii after 18 to 20 hr by agar dilution method; assay type: functional
Salmonella enteritidis = assay: Antimicrobial activity against Salmonella enterica subsp. enterica serovar Enteritidis after 18 to 20 hr by agar dilution method; assay type: functional
Vibrio fluvialis = assay: Antimicrobial activity against Vibrio fluvialis after 18 to 20 hr by agar dilution method; assay type: functional
[6] = Selectivity index, ratio of CC50 for human MT4 cells to EC50 for HIV1 3B infected in MT4 cells; assay type: toxicity, cell-based; details: read-out: Ratio CC50/EC50
Salmonella typhimurium = assay: Antimicrobial activity against Salmonella enterica subsp. enterica serovar Typhimurium after 18 to 20 hr by agar dilution method; assay type: functional
Plesiomonas = assay: Antimicrobial activity against Plesiomonas after 18 to 20 hr by agar dilution method; assay type: functional
Salmonella paratyphi = assay: Antimicrobial activity against Salmonella enterica subsp. enterica serovar Paratyphi A after 18 to 20 hr by agar dilution method; assay type: functional
Pseudomonas aeruginosa = assay: Antimicrobial activity against Pseudomonas aeruginosa after 18 to 20 hr by agar dilution method; assay type: functional
Proteus vulgaris = assay: Antimicrobial activity against Proteus vulgaris after 18 to 20 hr by agar dilution method; assay type: functional
Vibrio mimicus = assay: Antimicrobial activity against Vibrio mimicus after 18 to 20 hr by agar dilution method; assay type: functional
Citrobacter freundii = assay: Antimicrobial activity against Citrobacter freundii after 18 to 20 hr by agar dilution method; assay type: functional
[7] = test system: Human immunodeficiency virus 1; assay: Antiviral activity against Human immunodeficiency virus 1 IIIB infected CEM cells assessed as inhibition of virus-induced cytopathicity after 6 days by XTT assay; assay type: functional, organism-based; details: CCRF-CEM, 144 h
Edwardsiella tarda = assay: Antimicrobial activity against Edwardsiella tarda after 18 to 20 hr by agar dilution method; assay type: functional
Shigella boydii = assay: Antimicrobial activity against Shigella boydii after 18 to 20 hr by agar dilution method; assay type: functional
Vibrio parahaemolyticus = assay: Antimicrobial activity against Vibrio parahaemolyticus after 18 to 20 hr by agar dilution method; assay type: functional
Priestia megaterium = assay: Antimicrobial activity against Bacillus megaterium after 18 to 20 hr by agar dilution method; assay type: functional
Escherichia coli [8] = assay: Antimicrobial activity against Escherichia coli NCTC 10418 after 18 to 20 hr by agar dilution method; assay type: functional
Proteus mirabilis = assay: Antimicrobial activity against Proteus mirabilis after 18 to 20 hr by agar dilution method; assay type: functional
[9] = Cytotoxicity against Homo sapiens (human) MT4 cells after 5 days by MTT assay; assay type: cell-based
Salmonella typhi = assay: Antimicrobial activity against Salmonella enterica subsp. enterica serovar Typhi after 18 to 20 hr by agar dilution method; assay type: functional
[10] = test system: Mycobacterium tuberculosis; assay: Antimycobacterial activity against Mycobacterium tuberculosis H37Rv ATCC 27294 at 6.25 ug/ml by MABA; assay type: functional
Staphylococcus aureus = assay: Antimicrobial activity against Staphylococcus aureus after 18 to 20 hr by agar dilution method; assay type: functional
Vibrio cholerae [11] = assay: Antimicrobial activity against Vibrio cholerae 0139 after 18 to 20 hr by agar dilution method; assay type: functional; details: 139
Enterobacter = assay: Antimicrobial activity against Enterobacter after 18 to 20 hr by agar dilution method; assay type: functional
Escherichia coli [12] = assay: Ratio of ciproflaxacin ED50 to compound ED50 for Escherichia coli NCTC 10418 infected in po dosed CF mouse; assay type: functional
Vibrio cholerae [13] = assay: Antimicrobial activity against Vibrio cholerae 01 after 18 to 20 hr by agar dilution method; assay type: functional; details: 1
[14] = target: Human immunodeficiency virus type 1 reverse transcriptase (Human immunodeficiency virus 1, UniProt Q72547); assay: Inhibition of Human immunodeficiency virus 1 RT using Poly(vC)oligo (dG) as template/primer after 30 min
Hepatitis C virus = assay: Antiviral activity against Hepatitis C virus BM4-5 infected in Huh7 cells assessed as inhibition of viral RNA replication by phosphor screening method; assay type: functional, Hepacivirus hominis, Huh-7
[15] = Cytotoxicity against Homo sapiens (human) HuH7 cells assessed as cell growth at 50 ug/ml after 3 days by Neutral red assay; assay type: cell-based, Huh-7; details: read-out: Activity
[16] = test system: Mycobacterium tuberculosis; assay: Antimycobacterial activity against Mycobacterium tuberculosis H37Rv ATCC 27294; assay type: functional
[17] = test system: Human immunodeficiency virus 1; assay: Antiviral activity against Human immunodeficiency virus 1 IIIB infected MT4 cells assessed as inhibition of virus-induced cytopathicity after 5 days by MTT assay; assay type: functional, organism-based; details: MT4, 120 h
Klebsiella pneumoniae [18] = assay: Antimicrobial activity against Klebsiella pneumoniae subsp. ozaenae after 18 to 20 hr by agar dilution method; assay type: functional

SMILES | MIC (Klebsiella pneumoniae [1]) [µg/mL] | CC50 at 120 h [4] [µg/mL] | Activity [5] [%] | Activity (Vero) | MIC (Shigella sonnei) [µg/mL] | MIC (Morganella morganii) [µg/mL] | MIC (Salmonella enteritidis) [µg/mL] | MIC (Vibrio fluvialis) [µg/mL] | MIC (Salmonella typhimurium) [µg/mL] | MIC (Plesiomonas) [µg/mL] | MIC (Salmonella paratyphi) [µg/mL] | MIC (Pseudomonas aeruginosa) [µg/mL] | MIC (Proteus vulgaris) [µg/mL] | MIC (Vibrio mimicus) [µg/mL] | MIC (Citrobacter freundii) [ng/mL] | EC50 [7] [µg/mL] | MIC (Edwardsiella tarda) [µg/mL] | MIC (Shigella boydii) [µg/mL] | MIC (Vibrio parahaemolyticus) [µg/mL] | MIC (Priestia megaterium) [µg/mL] | also measured
COc1cc(Cc2cnc(/N=C3\C(=O)N(CN4CCN(c5cc6c(cc5F)c(=O)c(C(=O)O)cn6C5CC5)CC4)c4ccc(Cl)cc43)nc2N)cc(OC)c1OC | 0.31 (≈ 0.389 µM) | > 200 | 33.3 | Non-toxic | 0.31 (≈ 0.389 µM) | 1.22 (≈ 1.53 µM) | 0.61 (≈ 0.766 µM) | 0.0095 (≈ 0.0119 µM) | 0.0047 (≈ 0.0059 µM) | 1.22 (≈ 1.53 µM) | 0.153 (≈ 0.191 µM) | 1.22 (≈ 1.53 µM) | 0.0095 (≈ 0.0119 µM) | 0.0095 (≈ 0.0119 µM) | 1220 (≈ 1.53 µM) | > 200 | 0.019 (≈ 0.0238 µM) | 2.44 (≈ 3.06 µM) | 0.0763 (≈ 0.0957 µM) | 0.019 (≈ 0.0238 µM) | Activity [2]: 101%; ED50 (Escherichia coli [3]): 0.62 mg/kg; selectivity ratio [6]: > 19; MIC (Escherichia coli [8]): 0.0381 µg/mL (≈ 0.0478 µM); MIC (Proteus mirabilis): 0.019 µg/mL (≈ 0.0238 µM); CC50 at 120 h [9]: 187 µg/mL (≈ 234 µM); MIC (Salmonella typhi): 0.305 µg/mL (≈ 0.383 µM); inhibition at 6.25 µg/mL [10]: 100%; MIC (Staphylococcus aureus): 4.88 µg/mL (≈ 6.12 µM); MIC (Vibrio cholerae [11]): 0.019 µg/mL (≈ 0.0238 µM); MIC (Enterobacter): 0.0381 µg/mL (≈ 0.0478 µM); Ratio ED50 (Escherichia coli [12]): 2; MIC (Vibrio cholerae [13]): 4.88 µg/mL (≈ 6.12 µM); IC50 [14]: 18.4 µM; inhibition (INH) (Hepatitis C virus): 86%; viability at 72 h, 50 ug/ml [15]: 109%; MIC [16]: 3.13 µg/mL (≈ 3.93 µM); EC50 [17]: 9.4 µg/mL (≈ 11.8 µM); MIC (Klebsiella pneumoniae [18]): 4.83 µg/mL (≈ 6.06 µM)
CCn1cc(C(=O)O)c(=O)c2cc(F)c(N3CCN(CN4C(=O)/C(=N\c5ncc(Cc6cc(OC)c(OC)c(OC)c6)c(N)n5)c5cc(Cl)ccc54)C(C)C3)c(F)c21 (stereo unspecified) | 9.77 (≈ 11.9 µM) | 18.7 (≈ 22.9 µM) | 48.3 | Non-toxic | 4.88 (≈ 5.97 µM) | 0.153 (≈ 0.187 µM) | 0.0095 (≈ 0.0116 µM) | 0.019 (≈ 0.0232 µM) | 0.0381 (≈ 0.0466 µM) | 1.22 (≈ 1.49 µM) | 0.019 (≈ 0.0232 µM) | 0.153 (≈ 0.187 µM) | 0.153 (≈ 0.187 µM) | 0.0381 (≈ 0.0466 µM) | 4.7 (≈ 0.00575 µM) | > 18.7 | 0.0763 (≈ 0.0934 µM) | 0.305 (≈ 0.373 µM) | 0.0047 (≈ 0.00575 µM) | 0.019 (≈ 0.0232 µM) | Activity [2]: 89%; ED50 (Escherichia coli [3]): 1.25 mg/kg; selectivity ratio [6]: 3; MIC (Escherichia coli [8]): 0.153 µg/mL (≈ 0.187 µM); MIC (Proteus mirabilis): 0.0763 µg/mL (≈ 0.0934 µM); CC50 at 120 h [9]: 36.9 µg/mL (≈ 45.2 µM); MIC (Salmonella typhi): 0.019 µg/mL (≈ 0.0232 µM); inhibition at 6.25 µg/mL [10]: 100%; MIC (Staphylococcus aureus): 0.0763 µg/mL (≈ 0.0934 µM); MIC (Vibrio cholerae [11]): 0.0381 µg/mL (≈ 0.0466 µM); MIC (Enterobacter): 0.0095 µg/mL (≈ 0.0116 µM); MIC (Vibrio cholerae [13]): 0.0095 µg/mL (≈ 0.0116 µM); inhibition (INH) (Hepatitis C virus): 60%; viability at 72 h, 50 ug/ml [15]: 85%; MIC [16]: 1.56 µg/mL (≈ 1.91 µM); EC50 [17]: 17.2 µg/mL (≈ 21 µM); MIC (Klebsiella pneumoniae [18]): 19.5 µg/mL (≈ 23.9 µM)
COc1cc(Cc2cnc(/N=C3\C(=O)N(CN4CCN(c5c(F)cc6c(=O)c(C(=O)O)cn(C7CC7)c6c5F)CC4C)c4ccc(Cl)cc43)nc2N)cc(OC)c1OC (stereo unspecified) | 2.44 (≈ 2.94 µM) | 67 (≈ 80.8 µM) | 20.04 | Non-toxic | 0.152 (≈ 0.183 µM) | 0.0381 (≈ 0.0459 µM) | 0.019 (≈ 0.0229 µM) | 0.019 (≈ 0.0229 µM) | 0.0381 (≈ 0.0459 µM) | 0.0381 (≈ 0.0459 µM) | 0.153 (≈ 0.184 µM) | 0.019 (≈ 0.0229 µM) | 0.0763 (≈ 0.092 µM) | 0.019 (≈ 0.0229 µM) | 9.5 (≈ 0.0115 µM) | > 67 | 0.0763 (≈ 0.092 µM) | 0.0381 (≈ 0.0459 µM) | 0.0763 (≈ 0.092 µM) | 0.019 (≈ 0.0229 µM) | MIC (Escherichia coli [8]): 0.0763 µg/mL (≈ 0.092 µM); MIC (Proteus mirabilis): 0.0763 µg/mL (≈ 0.092 µM); MIC (Salmonella typhi): 0.019 µg/mL (≈ 0.0229 µM); inhibition at 6.25 µg/mL [10]: 100%; MIC (Staphylococcus aureus): 0.019 µg/mL (≈ 0.0229 µM); MIC (Vibrio cholerae [11]): 0.153 µg/mL (≈ 0.184 µM); MIC (Enterobacter): 0.019 µg/mL (≈ 0.0229 µM); MIC (Vibrio cholerae [13]): 0.61 µg/mL (≈ 0.736 µM); MIC [16]: 3.13 µg/mL (≈ 3.77 µM); MIC (Klebsiella pneumoniae [18]): 0.0381 µg/mL (≈ 0.0459 µM)
